Experimental data reported in article PMC12693523, “Aldose Reductase Inhibition by Orthosiphon stamineus Extracts and Constituents Suggests Antioxidant Potential” (Molecules, 2025).

Target: T1, aldose reductase (AKR1B1) (Homo sapiens, UniProt P15121)
T1 construct: recombinant human AKR1B1 protein (His Tag)
Assay: NADPH consumption at […] nm with DL-glyceraldehyde, recombinant enzyme
Type: biochemical

| Structure (SMILES) | IC50 [µM] |
| --- | --- |
| O=C(/C=C/c1ccc(O)c(O)c1)O[C@H](Cc1ccc(O)c(O)c1)C(=O)O [RA, rosmarinic acid] | 41.4 ± 0.04 |
| COc1ccc(-c2cc(=O)c3c(O)c(OC)c(OC)cc3o2)cc1O [EUP, eupatorin] | 203 ± 0.24 |
